The nature of data set [1]: Cytotoxicity against human MRC5 cells. The format is toxicity, cell-based.
A further data set deals with Plasmodium berghei. Put plainly: Antimalarial activity against liver stage of Plasmodium berghei ANKA. The format is functional.
The target in data set [2] is T1, Isoleucine--tRNA ligase (Thermus thermophilus (strain HB8 / ATCC 27634 / DSM 579), UniProt P56690).
T1 sequence (P56690 whole entry): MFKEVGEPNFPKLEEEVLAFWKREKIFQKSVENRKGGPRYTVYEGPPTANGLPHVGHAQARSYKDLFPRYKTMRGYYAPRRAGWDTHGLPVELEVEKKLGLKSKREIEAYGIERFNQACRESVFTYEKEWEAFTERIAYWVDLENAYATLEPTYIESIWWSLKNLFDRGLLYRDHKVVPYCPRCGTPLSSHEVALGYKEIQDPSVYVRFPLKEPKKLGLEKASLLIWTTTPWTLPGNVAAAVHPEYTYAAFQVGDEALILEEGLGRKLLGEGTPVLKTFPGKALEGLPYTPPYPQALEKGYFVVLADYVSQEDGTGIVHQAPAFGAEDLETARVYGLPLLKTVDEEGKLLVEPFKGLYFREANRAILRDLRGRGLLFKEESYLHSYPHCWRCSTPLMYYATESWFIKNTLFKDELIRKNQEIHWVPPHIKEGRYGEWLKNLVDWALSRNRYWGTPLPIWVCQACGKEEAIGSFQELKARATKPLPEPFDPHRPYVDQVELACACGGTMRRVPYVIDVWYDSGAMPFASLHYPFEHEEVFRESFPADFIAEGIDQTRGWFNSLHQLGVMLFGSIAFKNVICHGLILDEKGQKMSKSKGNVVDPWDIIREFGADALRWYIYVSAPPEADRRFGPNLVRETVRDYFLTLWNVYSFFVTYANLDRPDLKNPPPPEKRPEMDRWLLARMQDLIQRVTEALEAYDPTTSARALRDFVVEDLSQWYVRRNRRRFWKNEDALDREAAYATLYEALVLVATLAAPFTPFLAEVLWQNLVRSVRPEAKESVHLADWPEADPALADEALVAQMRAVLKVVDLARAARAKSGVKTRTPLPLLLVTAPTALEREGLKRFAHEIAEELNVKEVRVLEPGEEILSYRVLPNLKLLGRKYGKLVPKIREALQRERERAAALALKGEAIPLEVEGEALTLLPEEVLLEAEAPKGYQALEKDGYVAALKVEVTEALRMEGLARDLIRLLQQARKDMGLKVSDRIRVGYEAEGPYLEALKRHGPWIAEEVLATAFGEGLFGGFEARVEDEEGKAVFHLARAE
The experiment in a line: Inhibition of recombinant Thermus thermophilus HB8 wild type IleRS assessed as suppression of L-[14C]isoleucyl-tRNA(Ile) formation.

Data set [3] deals with Isoleucine--tRNA ligase (Thermus thermophilus (strain HB8 / ATCC 27634 / DSM 579), UniProt P56690, L583F). The experiment in a line: Inhibition of recombinant Thermus thermophilus HB8 IleRS L583F mutant assessed as suppression of L-[14C]isoleucyl-tRNA(Ile) formation.
The target of data set [4] is Isoleucine--tRNA ligase (Thermus thermophilus (strain HB8 / ATCC 27634 / DSM 579), UniProt P56690, H581L/L583H). The experiment in a line: Inhibition of recombinant Thermus thermophilus HB8 IleRS H581L/L583H double mutant assessed as suppression of L-[14C]isoleucyl-tRNA(Ile) formation.
For data set [5], the target named is Isoleucine--tRNA ligase (Thermus thermophilus (strain HB8 / ATCC 27634 / DSM 579), UniProt P56690, H581S/L583I). The experiment in a line: Inhibition of recombinant Thermus thermophilus HB8 IleRS H581S/L583I double mutant assessed as suppression of L-[14C]isoleucyl-tRNA(Ile) formation.
Data set [6] deals with Isoleucine--tRNA ligase (Thermus thermophilus (strain HB8 / ATCC 27634 / DSM 579), UniProt P56690, H581N/L583F). The experiment in a line: Inhibition of recombinant Thermus thermophilus HB8 IleRS H581N/L583F double mutant assessed as suppression of L-[14C]isoleucyl-tRNA(Ile) formation.
Data set [7] is described as follows: Inhibition of Plasmodium falciparum Lysyl-tRNA ligase expressed in Escherichia coli Tuner (DE3) cells assessed as suppression of L-lysine-tRNA(Lys) formation in presence of AMP-Alexa633 tracer after 4 hrs by fluorescence polarization assay. (In general: In fluorescence polarisation assays a small probe gives low polarisation when free and higher when bound to something large.)

Data set [8] in a line: Selectivity ratio of IC50 for human Lysyl-tRNA ligase to IC50 for Plasmodium falciparum Lysyl-tRNA ligase.
Data set [9] concerns Saccharomyces cerevisiae. The experiment in a line: Ratio of IC50 for Saccharomyces cerevisiae wild type KRS1 to IC50 for Saccharomyces cerevisiae KRS1 Gln324Val mutant.
Data set [10] has as its system Saccharomyces cerevisiae. Put plainly: Ratio of IC50 for Saccharomyces cerevisiae wild type KRS1 to IC50 for Saccharomyces cerevisiae KRS1 Thr340Ser mutant.
Data set [11] relates to Saccharomyces cerevisiae. The experiment in a line: Ratio of IC50 for Saccharomyces cerevisiae wild type KRS1 to IC50 for Saccharomyces cerevisiae KRS1 Gln324Val/Thr340Ser mutant.
The nature of data set [12]: Inhibition of Escherichia coli TrpRS assessed as suppression of L-[5-3H]tryptophanyl-tRNA formation after 10 mins by liquid scintillation counting method.
Data set [13] in a line: Inhibition of bovine liver TrpRS assessed as suppression of L-[5-3H]tryptophanyl-tRNA formation after 10 mins by liquid scintillation counting method. Further details: species or system Bos taurus.

Here are results for 7 compounds from ChEMBL document CHEMBL3861949 (Medchemcomm, 2016).

Isoleucine--tRNA ligase (Thermus thermophilus (strain HB8 / ATCC 27634 / DSM 579), UniProt P56690, L583F), sequence (P56690 whole entry L583F): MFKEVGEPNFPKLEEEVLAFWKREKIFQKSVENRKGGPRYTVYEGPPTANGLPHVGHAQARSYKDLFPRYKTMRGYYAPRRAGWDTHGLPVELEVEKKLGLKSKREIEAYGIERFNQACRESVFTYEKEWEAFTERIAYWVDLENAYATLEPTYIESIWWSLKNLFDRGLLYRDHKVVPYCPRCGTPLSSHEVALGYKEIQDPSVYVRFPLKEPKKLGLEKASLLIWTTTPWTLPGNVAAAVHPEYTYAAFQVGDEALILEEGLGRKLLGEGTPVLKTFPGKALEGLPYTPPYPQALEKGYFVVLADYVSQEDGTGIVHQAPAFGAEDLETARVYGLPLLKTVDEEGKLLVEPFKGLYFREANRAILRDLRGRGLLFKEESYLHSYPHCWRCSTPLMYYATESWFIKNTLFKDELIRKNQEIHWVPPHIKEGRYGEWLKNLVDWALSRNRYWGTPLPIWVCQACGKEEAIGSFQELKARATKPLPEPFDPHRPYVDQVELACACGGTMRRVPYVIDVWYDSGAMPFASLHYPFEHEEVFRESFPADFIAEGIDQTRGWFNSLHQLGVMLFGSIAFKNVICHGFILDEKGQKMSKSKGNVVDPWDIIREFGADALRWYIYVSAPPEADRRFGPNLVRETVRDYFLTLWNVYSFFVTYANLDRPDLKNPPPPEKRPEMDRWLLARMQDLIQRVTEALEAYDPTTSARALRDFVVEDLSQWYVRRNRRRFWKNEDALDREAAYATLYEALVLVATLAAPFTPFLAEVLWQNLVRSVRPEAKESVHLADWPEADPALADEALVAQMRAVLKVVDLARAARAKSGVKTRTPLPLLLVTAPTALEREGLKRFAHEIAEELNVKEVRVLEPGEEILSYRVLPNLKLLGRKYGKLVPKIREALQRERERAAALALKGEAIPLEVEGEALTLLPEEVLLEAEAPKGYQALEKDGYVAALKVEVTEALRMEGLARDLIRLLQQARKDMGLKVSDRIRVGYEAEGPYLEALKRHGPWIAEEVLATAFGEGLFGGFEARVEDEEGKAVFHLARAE
Isoleucine--tRNA ligase (Thermus thermophilus (strain HB8 / ATCC 27634 / DSM 579), UniProt P56690, H581S/L583I), sequence (P56690 whole entry H581S/L583I): as the sequence (P56690 whole entry L583F) above, with H581S, F583I counted along it
Isoleucine--tRNA ligase (Thermus thermophilus (strain HB8 / ATCC 27634 / DSM 579), UniProt P56690, H581L/L583H), sequence (P56690 whole entry H581L/L583H): as the sequence (P56690 whole entry L583F) above, with H581L, F583H counted along it
Isoleucine--tRNA ligase (Thermus thermophilus (strain HB8 / ATCC 27634 / DSM 579), UniProt P56690, H581N/L583F), sequence (P56690 whole entry H581N/L583F): as the sequence (P56690 whole entry L583F) above, with H581N counted along it

Consider `C[C@@H]1C[C@H](C)C[C@H](C)[C@@H](O)CC(=O)O[C@H]([C@@H]2CCC[C@H]2C(=O)O)C/C=C/C=C(/C#N)[C@H](O)[C@@H](C)C1` [BORRELIDIN], for which, in data set [1], the Activity is 201 ng/mL.

`O=c1c2cc(Cl)c(Br)cc2ncn1C[C@@H](O)C[C@H]1NCCC[C@@H]1O`: in the data set with Plasmodium berghei, the midpoint of the response, the EC50, lay at 0.014 µM.

Turning to `C/C(=C\C(=O)OCCCCCCCCC(=O)O)C[C@@H]1OC[C@H](C[C@@H]2O[C@H]2[C@@H](C)[C@H](C)O)[C@@H](O)[C@H]1O` [MUPIROCIN], the Ki – broadly, a dissociation constant, usually derived from enzyme kinetics or from competition with a known ligand – came out at 0.25 µM on Isoleucine--tRNA ligase [2]; 0.06 µM at Isoleucine--tRNA ligase [3]; 2.31 µM on Isoleucine--tRNA ligase [4]; 15 µM on Isoleucine--tRNA ligase [5]; 2.73 µM at Isoleucine--tRNA ligase [6].

In the case of `C[C@@H]1C[C@H](C)C[C@H](C)[C@@H](O)CC(=O)O[C@H]([C@@H]2CCC[C@H]2C(=O)OCc2cn(CSc3ccccc3)nn2)C/C=C/C=C(/C#N)[C@H](O)[C@@H](C)C1`, the Activity in data set [1] amounted to 16800 ng/mL.

Regarding `O=C(CC1NCCCC1O)Cn1cnc2cc(Br)c(Cl)cc2c1=O` (stereo unspecified) [HALOFUGINONE], in the data set with Plasmodium berghei, the EC50 (commonly the concentration needed to bring the measured effect to its halfway point) stood at 0.017 µM.

For the compound `C[C@H]1CCC[C@H](CC2Cc3cc(O)cc(O)c3C(=O)O2)O1` (stereo partly specified), the IC50 (as a rule, the concentration that gives 50% inhibition) in [7] is 0.04 µM. Moreover, the Ratio IC50 in data set [8] was greater than 100; in the data set with Saccharomyces cerevisiae [9], 5.7; with Saccharomyces cerevisiae [10] it was 10.4; in the data set on Saccharomyces cerevisiae [11] it was 38.7.

`CNC1=NC(=O)[C@H]([C@H](C)c2c[nH]c3ccccc23)O1` [INDOMYCIN]: the IC50 in [12] was found to be 0.00925 µM; in data set [13], 4040 µM.
